Test results reported in ChEMBL document CHEMBL1681717, “Design and synthesis of a novel, orally active, brain penetrant, tri-substituted thiophene based JNK inhibitor” (Bioorg Med Chem Lett, 2011).
pIC50: −log10 of the molar value.

Tests used:
[1] = target: Mitogen-activated protein kinase 8 (Homo sapiens, UniProt P45983); assay: Inhibition of recombinant JNK1 after 60 mins by TR-FRET assay
[2] = target: Mitogen-activated protein kinase 10 (Homo sapiens, UniProt P53779); assay: Inhibition of recombinant JNK3 after 60 mins by TR-FRET assay
[3] = target: Mitogen-activated protein kinase 9 (Homo sapiens, UniProt P45984); assay: Inhibition of recombinant JNK2 after 60 mins by TR-FRET assay
[4] = target: Mitogen-activated protein kinase 14 (Homo sapiens, UniProt Q16539); assay: Inhibition of recombinant p38alpha after 60 mins by TR-FRET assay
[5] = target: Mitogen-activated protein kinase 1 (Homo sapiens, UniProt P28482); assay: Inhibition of recombinant ERK2 after 60 mins by TR-FRET assay
[6] = Oxidative metabolic stability in mouse liver microsomes assessed as compound remaining at 5 uM after 120 mins; format: ADME, Microsome; details: read-out: Stability
MDR1 [7] = assay: Efflux ratio of permeability from basolateral to apical side over apical to basolateral side in MDCK2 cells expressing MDR1; format: ADME, cell-based, Canis lupus familiaris, MDCK-II; details: dog, MDCK-MDR1
MDR1 [8] = assay: Apparent permeability of the compound from apical to basolateral direction in MDCK2 cells expressing MDR1; format: ADME, cell-based, Canis lupus familiaris, MDCK-II; details: dog, MDCK-MDR1
[9] = Oxidative metabolic stability in human liver microsomes assessed as compound remaining at 5 uM after 120 mins; format: ADME, Microsome; details: read-out: Stability
[10] = Solubility of the compound in hank's buffered salt solution; format: physicochemical

Sequence of Mitogen-activated protein kinase 9 (P45984 whole entry): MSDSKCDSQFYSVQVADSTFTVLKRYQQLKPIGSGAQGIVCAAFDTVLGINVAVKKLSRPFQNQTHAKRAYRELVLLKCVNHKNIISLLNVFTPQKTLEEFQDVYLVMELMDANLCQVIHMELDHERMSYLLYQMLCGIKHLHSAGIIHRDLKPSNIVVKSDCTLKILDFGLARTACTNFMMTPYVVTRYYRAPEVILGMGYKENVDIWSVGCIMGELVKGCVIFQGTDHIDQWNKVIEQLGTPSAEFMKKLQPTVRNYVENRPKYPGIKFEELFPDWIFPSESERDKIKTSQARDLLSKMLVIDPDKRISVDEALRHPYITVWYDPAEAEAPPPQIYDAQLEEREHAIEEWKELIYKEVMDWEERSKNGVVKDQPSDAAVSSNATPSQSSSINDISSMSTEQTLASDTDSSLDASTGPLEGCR
Sequence of Mitogen-activated protein kinase 8 (P45983 whole entry): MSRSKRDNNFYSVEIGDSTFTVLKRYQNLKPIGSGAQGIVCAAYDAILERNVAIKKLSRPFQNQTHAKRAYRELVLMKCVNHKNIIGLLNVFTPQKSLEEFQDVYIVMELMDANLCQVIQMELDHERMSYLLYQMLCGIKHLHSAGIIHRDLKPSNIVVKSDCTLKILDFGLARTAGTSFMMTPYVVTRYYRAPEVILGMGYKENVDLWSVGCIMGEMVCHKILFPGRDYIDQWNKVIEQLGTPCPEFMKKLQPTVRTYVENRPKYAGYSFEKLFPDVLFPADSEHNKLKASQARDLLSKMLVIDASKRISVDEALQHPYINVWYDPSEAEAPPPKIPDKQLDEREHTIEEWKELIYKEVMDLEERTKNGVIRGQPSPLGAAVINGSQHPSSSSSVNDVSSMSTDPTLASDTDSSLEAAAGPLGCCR
Sequence of Mitogen-activated protein kinase 1 (P28482 whole entry): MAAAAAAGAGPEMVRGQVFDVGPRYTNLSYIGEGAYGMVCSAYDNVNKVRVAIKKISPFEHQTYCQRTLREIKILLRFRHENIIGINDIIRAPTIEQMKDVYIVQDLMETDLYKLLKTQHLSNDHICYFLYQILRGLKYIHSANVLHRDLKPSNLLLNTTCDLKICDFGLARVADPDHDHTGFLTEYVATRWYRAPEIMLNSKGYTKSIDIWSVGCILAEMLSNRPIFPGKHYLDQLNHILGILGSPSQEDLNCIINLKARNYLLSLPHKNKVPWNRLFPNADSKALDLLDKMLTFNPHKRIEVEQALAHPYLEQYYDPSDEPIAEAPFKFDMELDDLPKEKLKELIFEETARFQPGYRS
Sequence of Mitogen-activated protein kinase 10 (P53779 whole entry): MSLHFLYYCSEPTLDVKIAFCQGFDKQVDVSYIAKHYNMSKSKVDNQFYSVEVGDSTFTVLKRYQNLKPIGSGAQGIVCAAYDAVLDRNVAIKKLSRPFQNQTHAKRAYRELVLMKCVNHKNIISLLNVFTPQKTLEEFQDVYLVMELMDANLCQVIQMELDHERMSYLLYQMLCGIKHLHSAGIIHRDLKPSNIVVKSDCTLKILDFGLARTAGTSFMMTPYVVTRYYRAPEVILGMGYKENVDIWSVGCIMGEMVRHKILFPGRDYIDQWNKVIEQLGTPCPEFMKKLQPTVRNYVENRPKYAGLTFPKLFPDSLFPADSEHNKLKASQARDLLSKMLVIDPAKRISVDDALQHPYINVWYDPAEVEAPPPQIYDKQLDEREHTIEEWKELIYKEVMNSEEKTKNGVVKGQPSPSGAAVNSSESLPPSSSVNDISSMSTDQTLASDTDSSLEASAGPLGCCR
Sequence of Mitogen-activated protein kinase 14 (Q16539 whole entry): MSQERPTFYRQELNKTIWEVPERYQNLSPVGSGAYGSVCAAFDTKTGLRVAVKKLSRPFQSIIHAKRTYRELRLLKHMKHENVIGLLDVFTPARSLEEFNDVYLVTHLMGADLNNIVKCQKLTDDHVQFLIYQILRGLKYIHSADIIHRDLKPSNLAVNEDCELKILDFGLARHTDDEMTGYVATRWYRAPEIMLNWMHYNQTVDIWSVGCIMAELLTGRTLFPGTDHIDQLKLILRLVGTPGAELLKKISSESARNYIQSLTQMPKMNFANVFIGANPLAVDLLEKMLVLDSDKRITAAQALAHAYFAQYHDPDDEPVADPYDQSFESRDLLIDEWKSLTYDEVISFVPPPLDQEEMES

SMILES | pIC50 [1] | pIC50 [2] | pIC50 [3] | pIC50 [4] | pIC50 [5] | remaining at 2 h, 5 µM [6] [%] | efflux ratio (MDR1 [7]) | Papp A→B (MDR1 [8]) [×10⁻⁶ cm/s] | remaining at 2 h, 5 µM [9] [%] | solubility [10] [µM]
COC(=O)c1c(C)csc1NC(=O)Cc1ccc(OCCCN2CCCC2)cc1 | 6.55 | 6.65 | 5.59 |  |  |  |  |  |  | 
Cc1n[nH]c(-c2c(C)csc2NC(=O)CN2C(=O)CCc3ccccc32)n1 | 7.82 | 7.60 | 7.38 | < 4.30 | < 4.30 |  |  |  |  | 
Cc1csc(NC(=O)CN2C(=O)CCc3ccccc32)c1-c1ncn[nH]1 | 7.49 |  | 7.51 | < 4.30 | < 4.30 | 0 | 3.2 | 14.8 | 0 | 
Cc1n[nH]c(-c2c(C)csc2NC(=O)Cc2cccc3ncccc23)n1 | 7.35 | 7.10 | 7.09 | < 4.30 | < 4.30 |  |  |  |  | 
COC(=O)c1c(C)csc1NC(=O)Cc1cccc2cnccc12 | 7.51 | 7.21 | 6.06 |  |  |  |  |  |  | 
N#Cc1csc(NC(=O)Cc2cccc3ncccc23)c1-c1nnc[nH]1 | 7.92 | 7.92 | 7.39 | < 4.30 | 4.45 |  |  |  |  | 
O=C(CN1C(=O)CCc2ccccc21)Nc1scc(Cl)c1-c1ncn[nH]1 | 8.40 | 8.30 | 8.05 | < 4.30 | < 4.30 | 0 | 0.9 | 23.3 | 20 | 
O=C(Cc1cccc2ncccc12)Nc1scc(Cl)c1-c1ncn[nH]1 | 7.82 | 7.74 | 7.38 | < 4.30 | < 4.30 |  |  |  |  | 
CCOC(=O)c1c(C2CC2)csc1NC(=O)Cc1ccc(OC)cc1 | 4.81 | 5.02 | 5.20 |  |  |  |  |  |  | 
O=C(CN1C(=O)CCc2ccccc21)Nc1scc(Br)c1-c1ncn[nH]1 | 7.60 | 7.55 | 7.38 | < 4.70 | < 4.30 |  |  |  |  | 
COC(=O)c1c(C)csc1NC(=O)Cc1ccc(OC)cc1 | 6.23 | 6.15 | 5.50 |  |  |  |  |  |  | 
COC(=O)c1sccc1NC(=O)Cc1cccs1 |  |  | 4.64 | < 4.30 | < 4.30 |  |  | 14.4 |  | 72
COC(=O)c1c(C)csc1NC(=O)Cc1cccc2nccnc12 | 7.02 | 6.79 | 6.12 |  |  |  |  |  |  | 
CCOC(=O)c1c(C#N)csc1NC(=O)Cc1ccc(OC)cc1 | 6.46 | 6.51 | 6.03 |  |  |  |  |  |  | 
N#Cc1csc(NC(=O)CN2C(=O)CCc3ccccc32)c1-c1ncn[nH]1 | 8.05 | 8.22 | 8.10 | < 4.30 | < 4.30 | 37 | 4.1 | 18 | 39 | 
COC(=O)c1c(C)csc1NC(=O)Cc1cccc2cc[nH]c12 | 6.16 | 5.99 | 5.38 |  |  |  |  |  |  | 

SMILES | pIC50 [1] | pIC50 [2] | pIC50 [3] | pIC50 [4] | pIC50 [5] | remaining at 2 h, 5 µM [6] [%] | efflux ratio (MDR1 [7]) | Papp A→B (MDR1 [8]) [×10⁻⁶ cm/s] | remaining at 2 h, 5 µM [9] [%] | solubility [10] [µM]
COC(=O)c1c(C)csc1NC(=O)Cc1ccc(-c2ccncc2)cc1 | 6.55 | 6.58 | 5.74 |  |  |  |  |  |  | 
Cc1n[nH]c(-c2c(C)csc2NC(=O)Cc2cccc3nccnc23)n1 | 6.53 | 6.23 | 6.64 | < 5.30 | < 5.30 |  |  |  |  | 
COC(=O)c1c(C)csc1NC(=O)Cc1ccc(OCCCn2ccnc2)cc1 | 6.22 | 6.30 | 5.34 |  |  |  |  |  |  | 
O=C(Cc1cccc2cnccc12)Nc1scc(Br)c1-c1ncn[nH]1 | 7.55 | 7.48 | 7.30 | < 4.30 | < 4.30 |  |  |  |  | 
N#Cc1csc(NC(=O)Cc2cccc3cnccc23)c1-c1ncn[nH]1 | 7.96 | 8.15 | 7.59 | < 4.30 | < 4.30 | 48 | 4.6 | 13.3 | 62 | 
Cc1nnc(-c2c(C)csc2NC(=O)Cc2ccc(-c3ccncc3)cc2)[nH]1 |  | 6.49 |  | < 5.30 | < 5.30 |  |  |  |  | 
CCc1csc(NC(=O)Cc2ccc(OC)cc2)c1C(=O)OC | 4.71 | 5.04 | 4.65 |  |  |  |  |  |  | 
COc1ccc(CC(=O)Nc2scc(C)c2-c2nc(C)n[nH]2)cc1 | 6.48 | 6.33 | 6.08 |  |  |  |  |  |  | 
COC(=O)c1c(C)csc1NC(=O)Cc1ccc(OCCCN2CCCCC2)cc1 | 6.53 | 7.00 | 6.21 |  |  |  |  |  |  | 
O=C(Cc1cccc2ncccc12)Nc1scc(Br)c1-c1ncn[nH]1 | 7.38 | 7.47 | 7.05 | < 4.30 | < 4.30 |  |  |  |  | 
COC(=O)c1c(C)csc1NC(=O)CN1C(=O)CCc2ccccc21 | 7.11 | 6.90 | 6.15 |  |  |  |  |  |  | 
Cc1n[nH]c(-c2c(C)csc2NC(=O)Cc2ccc(OCCCN3CCCCC3)cc2)n1 | 6.33 | 6.71 | 5.79 | < 5.30 | < 5.30 |  |  |  |  | 
Cc1csc(NC(=O)Cc2cccc3ncccc23)c1-c1ncn[nH]1 |  |  | 6.90 | < 4.30 | < 4.30 | 1 |  | 16.1 | 46 | 
C#Cc1csc(NC(=O)Cc2ccc(OC)cc2)c1C(=O)OCC | 5.98 | 5.52 | 4.55 |  |  |  |  |  |  | 
COC(=O)c1c(C)csc1NC(=O)Cc1cccc2ncccc12 | 7.26 | 6.96 | 6.39 |  |  |  |  |  |  | 
CCOC(=O)c1c(C(F)(F)F)csc1NC(=O)Cc1ccc(OC)cc1 | 4.72 | 4.41 | < 4.30 |  |  |  |  |  |  | 
